# Laboratory results from ChEMBL document CHEMBL2046268 (Eur J Med Chem, 2012).
# Active and inactive are the calls of the source. The calls are words filed in the database; no cut-off is given here.
# How the values were obtained:
# A549 [1] = test: Cytotoxicity against human A549 cells assessed as cell viability after 48 hrs by MTT assay; format: functional, cell-based; details: A549, 48 h
# Vero [2] = test: Cytotoxicity against african green monkey Vero cells assessed as cell viability after 48 hrs by MTT assay; format: cell-based; details: Chlorocebus sabaeus
# Vero [3] = test: Selectivity index, ratio of IC50 for african green monkey Vero cells to IC50 for human MCF7 cells after 48 hrs
# A549 [4] = test: Cytotoxicity against human A549 cells assessed as cell viability after 72 hrs by MTT assay; format: functional, cell-based; details: A549, 72 h
# Vero [5] = test: Cytotoxicity against african green monkey Vero cells assessed as cell viability after 72 hrs by MTT assay; format: cell-based; details: Chlorocebus sabaeus
# HeLa [6] = test: Cytotoxicity against human HeLa cells assessed as cell viability after 48 hrs by MTT assay; format: functional, cell-based
# HeLa [7] = test: Cytotoxicity against human HeLa cells assessed as cell viability after 72 hrs by MTT assay; format: functional, cell-based
# MCF7 [8] = test: Cytotoxicity against human MCF7 cells assessed as cell viability after 72 hrs by MTT assay; format: functional, cell-based; details: MCF7, 72 h
# MCF7 [9] = test: Cytotoxicity against human MCF7 cells assessed as cell viability after 48 hrs by MTT assay; format: functional, cell-based; details: MCF7, 48 h
# HeLa [10] = test: Induction of apoptosis in human HeLa cells assessed as phosphatidylserine externalization after 0.5 to 4 hrs using annexin/PI staining by fluorescence microscopy; format: functional, cell-based
# HeLa [11] = test: Induction of apoptosis in human HeLa cells assessed as DNA fragmentation at 16 uM after 48 hrs by agarose gel electrophoresis; format: functional, cell-based
# HeLa [12] = test: Induction of apoptosis in human HeLa cells assessed as chromatin condensation at 8 uM after 12 hrs using Hoechst 33342 staining by fluorescence microscopic analysis; format: functional, cell-based
# HeLa [13] = test: Induction of apoptosis in human HeLa cells assessed as phosphatidylserine externalization at 2 to 16 uM using annexin/PI staining by fluorescence microscopy; format: functional, cell-based; details: TDE = time-dependent effect
# HeLa [14] = test: Induction of apoptosis in human HeLa cells assessed as early apoptotic cells at 2 to 4 uM up to 4 hrs using annexin/PI staining by fluorescence microscopy; format: functional, cell-based
# Caspase-3 (Homo sapiens) [15] = molecular target: T1, Caspase-3 (Homo sapiens) (UniProt P42574); test: Induction of caspase 3 activation in human HeLa cells using Ac-DEVD-pNA at 4 uM after 4 hrs by Bradford assay; format: cell-based
# T1 sequence (whole entry): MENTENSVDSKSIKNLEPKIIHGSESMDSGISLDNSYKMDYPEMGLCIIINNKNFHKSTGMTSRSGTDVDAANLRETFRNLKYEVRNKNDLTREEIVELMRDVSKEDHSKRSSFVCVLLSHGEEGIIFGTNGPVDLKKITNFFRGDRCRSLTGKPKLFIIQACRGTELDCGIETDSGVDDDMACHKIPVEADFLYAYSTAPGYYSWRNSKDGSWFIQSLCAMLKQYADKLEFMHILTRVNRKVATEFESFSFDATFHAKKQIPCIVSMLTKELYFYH
# Caspase-3 (Homo sapiens) [16] = molecular target: T1, Caspase-3 (Homo sapiens); test: Induction of caspase 3 activation in human HeLa cells using Ac-DEVD-pNA after 4 hrs by Bradford assay; format: cell-based
# HeLa [17] = test: Induction of apoptosis in human HeLa cells assessed as DNA fragmentation at 4 to 32 uM after 12 hrs by agarose gel electrophoresis; format: functional, cell-based
# HeLa [18] = test: Induction of apoptosis in human HeLa cells assessed as increase in sub-G1 DNA content at 24 uM after 12 hrs using Propidium iodide staining by flow cytometry; format: functional, cell-based
# Caspase-3 (Homo sapiens) [19] = molecular target: T1, Caspase-3 (Homo sapiens); test: Induction of caspase 3 activation in human HeLa cells using Ac-DEVD-pNA at 8 uM after 4 hrs by Bradford assay; format: cell-based
# HeLa [20] = test: Induction of apoptosis in human HeLa cells assessed as necrotic cells after 0.5 to 4 hrs using annexin/PI staining by fluorescence microscopy; format: functional, cell-based
# HeLa [21] = test: Induction of apoptosis in human HeLa cells assessed as DNA fragmentation at 16 to 32 uM after 24 hrs by agarose gel electrophoresis; format: functional, cell-based
# HeLa [22] = test: Induction of apoptosis in human HeLa cells assessed as necrotic cells at 2 to 16 uM using annexin/PI staining by fluorescence microscopy; format: functional, cell-based; details: TDE = time-dependent effect
# HeLa [23] = test: Induction of apoptosis in human HeLa cells assessed as formation of apoptotic bodies at 8 uM after 12 hrs using Hoechst 33342 staining by fluorescence microscopic analysis; format: functional, cell-based
# Caspase-3 (Homo sapiens) [24] = molecular target: T1, Caspase-3 (Homo sapiens); test: Induction of caspase 3 activation in human HeLa cells using Ac-DEVD-pNA at 24 uM after 8 hrs by Bradford assay; format: cell-based
Structure (SMILES),IC50 (A549 [1]) [µM],IC50 (Vero [2]) [µM],Ratio IC50 (Vero [3]),IC50 (A549 [4]) [µM],IC50 (Vero [5]) [µM],IC50 (HeLa [6]) [µM],IC50 (HeLa [7]) [µM],IC50 (MCF7 [8]) [µM],IC50 (MCF7 [9]) [µM],other results
CC1=C(CO)C(=O)O[C@@H]([C@@H](C)[C@H]2CC[C@H]3[C@@H]4C[C@H](Cl)[C@]5(O)[C@@H](O)C=CC(=O)[C@]5(C)[C@H]4CC[C@]23C)C1,14.7,14.8,2,8.6,7.8,13.4,12.1,1.3,7.5,–
CC1=C(C)C(=O)O[C@@H]([C@@H](C)[C@H]2CC[C@H]3[C@@H]4C[C@H]5O[C@]56[C@@H](O)C=CC(=O)[C@]6(C)[C@H]4CC[C@]23C)C1,9,1.5,<1,1.5,2.2,4.6,3.4,1.1,6.6,Activity (HeLa [10]): Dose-dependent effect; Activity (HeLa [11]): inactive; Activity (HeLa [12]): Active; Activity (HeLa [13]): tde; Activity (HeLa [14]): Active; Activity (Caspase-3 (Homo sapiens) [15]): inactive; Activity (Caspase-3 (Homo sapiens) [16]): Dose-dependent effect; Activity (HeLa [17]): inactive; Activity (HeLa [18]): Active; Activity (Caspase-3 (Homo sapiens) [19]): inactive; Activity (HeLa [20]): Dose-dependent effect; Activity (HeLa [21]): inactive; Activity (HeLa [22]): tde; Activity (HeLa [23]): Active
CC(=O)OCC1=C(C)C[C@H]([C@@H](C)[C@H]2CC[C@H]3[C@@H]4C[C@H]5O[C@]56[C@@H](O)C=CC(=O)[C@]6(C)[C@H]4CC[C@]23C)OC1=O,6.7,11.4,2.2,4.4,8.5,7.7,4.7,2,5.3,–
CC1=C(CO)C(=O)O[C@@H]([C@@H](C)[C@H]2CC[C@H]3[C@@H]4C[C@@H](O)[C@]5(C=O)CCC(=O)[C@]5(C)[C@H]4CC[C@]23C)C1,> 40,> 40,–,> 40,> 40,> 40,> 40,> 40,> 40,–
CC1=C(CO)C(=O)O[C@@H]([C@@H](C)[C@H]2CC[C@H]3[C@@H]4C[C@@H](O)[C@]5(C=O)C=CC(=O)[C@]5(C)[C@H]4CC[C@]23C)C1,> 40,> 40,–,> 40,> 40,> 40,> 40,> 40,> 40,–
CC1=C(C)C(=O)O[C@@H]([C@@H](C)C2=CC[C@H]3[C@@H]4C[C@H]5O[C@]56[C@@H](O)C=CC(=O)[C@]6(C)[C@H]4CC[C@]23C)C1,40,4.7,<1,5.5,3.1,21.5,8,2.2,12.6,–
CC1=C(CO)C(=O)O[C@@H]([C@@H](C)[C@@]2(O)CC[C@H]3[C@@H]4C[C@H]5O[C@]56[C@@H](O)C=CC(=O)[C@]6(C)[C@H]4CC[C@@]32C)C1,> 40,28.8,1.8,31.7,21.8,17.7,19.8,10.3,16.3,–
CC1=C(CO)C(=O)O[C@@H]([C@@H](C)[C@H]2CC[C@H]3[C@@H]4C[C@H]5O[C@]56C(=O)C=CC(=O)[C@]6(C)[C@H]4CC[C@]23C)C1,25.4,7.7,2.4,12.8,1.5,18.4,15.2,2.1,3.2,–
CC1=C(CO)C(=O)O[C@@H](/C(C)=C2\[C@@H](O)C[C@H]3[C@@H]4C[C@H]5O[C@]56[C@@H](O)C=CC(=O)[C@]6(C)[C@H]4CC[C@]23C)C1,> 40,> 40,<1,> 40,> 40,40,31.1,6,27.7,–
CC1=C(CO)C(=O)O[C@@H]([C@@H](C)[C@H]2CC[C@H]3[C@@H]4C[C@H]5O[C@]56[C@@H](O)C=CC(=O)[C@]6(C)[C@H]4CC[C@]23C)C1 [WITHAFERIN A],6.6,1.3,<1,1.5,1.7,3,2.3,0.6,3.6,Activity (HeLa [10]): Dose-dependent effect; Activity (HeLa [11]): inactive; Activity (HeLa [12]): Active; Activity (HeLa [13]): tde; Activity (Caspase-3 (Homo sapiens) [24]): Active; Activity (HeLa [14]): Active; Activity (Caspase-3 (Homo sapiens) [15]): inactive; Activity (Caspase-3 (Homo sapiens) [16]): Dose-dependent effect; Activity (HeLa [17]): inactive; Activity (HeLa [18]): Active; Activity (Caspase-3 (Homo sapiens) [19]): inactive; Activity (HeLa [20]): Dose-dependent effect; Activity (HeLa [21]): inactive; Activity (HeLa [22]): tde; Activity (HeLa [23]): Active
CC(=O)OCC1=C(C)C[C@H]([C@@H](C)[C@H]2CC[C@H]3[C@@H]4C[C@H]5O[C@]56[C@@H](O)[C@@H](O)CC(=O)[C@]6(C)[C@H]4CC[C@]23C)OC1=O,18.4,8.6,<1,21.3,4.9,8.9,8.3,7.1,9.2,–
CC1=C(C)C(=O)O[C@@H]([C@@H](C)[C@H]2CC[C@H]3[C@@H]4C[C@@H](O)[C@]5(C=O)CCC(=O)[C@]5(C)[C@H]4CC[C@]23C)C1,> 40,> 40,–,> 40,> 40,> 40,> 40,> 40,> 40,–
CC1=C(COC(C)(C)OC=O)C(=O)O[C@@H]([C@@H](C)[C@H]2CC[C@H]3[C@@H]4C[C@H]5O[C@]56[C@@H](O)C=CC(=O)[C@]6(C)[C@H]4CC[C@]23C)C1,> 40,27.8,1,> 40,18.5,> 40,37.3,18.3,26.9,–
CC1=C(CO)C(=O)O[C@@H]([C@@H](C)[C@H]2CC[C@H]3[C@@H]4C[C@H]5O[C@]56[C@@H](O)CCC(=O)[C@]6(C)[C@H]4CC[C@]23C)C1,33.5,15.5,1.1,17.2,9,28.9,19.3,5.4,14.4,–
CC1=C(CO)C(=O)O[C@@H]([C@@H](C)[C@H]2CC[C@H]3[C@@H]4C[C@H](O)[C@]5(O)[C@@H](O)C=CC(=O)[C@]5(C)[C@H]4CC[C@]23C)C1,> 40,40,1,36.4,26.9,> 40,31.4,36.2,38.4,–
CC1=C(CO)C(=O)O[C@@H]([C@@H](C)[C@H]2CC[C@H]3[C@@H]4C[C@@H](O)[C@@]5(O)[C@@H](O)[C@@H](O)CC(=O)[C@]5(C)[C@H]4CC[C@]23C)C1,> 40,> 40,–,> 40,> 40,> 40,> 40,> 40,> 40,–
Sc1ncnc2nc[nH]c12 [MERCAPTOPURINE ANHYDROUS],–,–,48.3,–,–,–,–,–,–,–
